Laboratory results taken from article PMC10667655 (Environmental Microbiology Reports, 2023).

Key:
Assay type in all cases: cell-based
[1] = test system: T1, isoprene monooxygenase (IsoMO) of Rhodococcus sp. AD45; experiment: inhibition of isoprene uptake, headspace gas chromatography; details: whole cells; about 5 μM isoprene in liquid; 50 mM phosphate pH 7.0, 30°C; alkyne in DMSO
T1 construct: gene isoA; native enzyme in whole cells of isoprene-grown bacteria; four-component soluble diiron monooxygenase, a2b2g2 oxygenase; with Isoprene monooxygenase oxygenase component subunit gamma; Isoprene monooxygenase Rieske-type ferredoxin component; Isoprene monooxygenase oxygenase component subunit beta

[2] = test system: T1, isoprene monooxygenase (IsoMO) of Rhodococcus sp. AD45; experiment: headspace substrate depletion, whole cells, non-linear regression; details: whole isoprene-grown cells; 50 mM phosphate pH 7.0, 30°C; O2 co-substrate; read-out: K m(app)
Text: headspace substrate depletion, whole cells, non-linear regression on isoprene monooxygenase (IsoMO) of Rhodococcus sp. AD45

[3] = test system: T2, isoprene monooxygenase (IsoMO) of Variovorax sp. WS11; experiment: headspace isoprene depletion by gas chromatography, whole cells; details: whole fermentor-grown cells; O2 co-substrate; read-out: K m(app)
T2 construct: gene isoA; native enzyme in whole fermentor-grown cells; iso genes on a megaplasmid; with Isoprene monooxygenase oxygenase component subunit gamma; Isoprene monooxygenase Rieske-type ferredoxin component; Isoprene monooxygenase oxygenase component subunit beta
Text: headspace isoprene depletion by gas chromatography, whole cells on isoprene monooxygenase (IsoMO) of Variovorax sp. WS11

Structure (SMILES)	% inhibition at 50 μM [1] [%]	Km [2] [µM]	Km [3] [µM]
C#CCCCCCC [1‐octyne]	74	–	–
C=CC(=C)C [isoprene, 2‐methyl‐1,3‐butadiene]	–	4 ± 1.3	10.5 ± 3.9
C=CC [propylene]	–	2 ± 0.8	–
